Converted amounts (≈) assume the structure as drawn. The source made the active and inactive calls. No cut-off for these calls is given here.
Legend:
[1] = test system: Artemia salina; experiment: Toxicity in Artemia salina; type: organism-based; details: in vivo
[2] = Cytotoxicity against human 9KB cells; type: functional; details: read-out: ED50 (the source's name)
[3] = test system: Agrobacterium tumefaciens; experiment: Antitumor activity against Agrobacterium tumefaciens-induced crown gall tumor in potato tubers by potato disk test; type: functional
[4] = test system: Mus musculus; experiment: In vivo cytotoxicity against mouse 3PS cells up to 200 mg/kg relative to control; type: functional, organism-based; set-up: dose 200 mg/kg
[5] = In vivo cytotoxicity against mouse 3PS cells at 50 mg/kg relative to control; type: functional
[6] = Cytotoxicity against mouse 9PS cells; type: functional; details: read-out: ED50 (the source's name)

Row | Structure (SMILES) | LC50 [1] | EC50 [2] | inhibition (INH) [3] | Activity [4] | T/C [5] | EC50 [6]
1 | COc1ccc(C=O)cc1O [ISOVANILLIN] | 31 ppm |  |  |  |  | 
2 | Oc1cc(O)cc(/C=C/c2ccc(O)c(O)c2)c1 [PICEATANNOL] | 278 ppm |  |  |  |  | 
3 | COc1cc(C=O)ccc1O [VANILLIN] | 31 ppm |  |  |  |  | 
4 | COc1cc(/C=C/c2ccc(O)c(OC)c2)cc(OC)c1 | > 1000 ppm | 0.25 µg/mL (≈ 0.873 µM) | 19% | inactive |  | 
5 | COc1cc(/C=C/c2ccc(OC)c(O)c2)cc(OC)c1 | 2.8 ppm | < 0.01 µg/mL | 22% |  | 119% | 0.1 µg/mL (≈ 0.349 µM)

From ChEMBL document CHEMBL1150702, “3,3',5'-Tri-O-methylpiceatannol and 4,3',5'-tri-O-methylpiceatannol: improvements over piceatannol in bioactivity” (J Nat Prod, 1987)
